Experimental data published in US20240269109A1 (STICHTING MEDISCHE KLINIEK VELSEN, priority 2021, published 2024).

Key:
[1] = off-label patient trial, oromucosal/sublingual formulation; type: in vivo, human
Experimental: The formulation of the invention was used “off-label” to treat a number of patients to determine its effect as set out in Example 2.
In the Netherlands, 22 patients were treated with the formulation of Example 1a as follows: […]
10 patients had COVID-19 symptoms (and were positive and were seen by their general practitioner). All 10 patients presented with early signs of respiratory distress; tachypnea (more than 30 breaths per minute), high fever and dry cough and a decreased Sp02<90.
6 patients had post-COVID respiratory complaints. They were experiencing long-term complaints, ranging from coughing, fatigue and shortness of breath to anxiety and physical limitations.
6 patients suffered with various autoimmune diseases as follows: • 1 patient had rheumatoid arthritis. • 1 patient had scleroderma; • 1 patient had dermatomyositis; • 1 patient had morbus Parkinson; • 2 patients had psoriasis.
All patients were given the formulation as described in Example 1a above, up to 6 times a day, for up to 2 weeks.

[2] = high doses for local anesthesia; cited from earlier work

SMILES: CCN(CC)CC(=O)Nc1c(C)cccc1C [lidocaine]
- response of COVID-19 patients with early signs of respiratory distress ([1]; 10 patients, sublingual): responded well
- effective adult unit dose ([1]; delivered oromucosally or sublingually, 4-6 times a day): 60 to 100 mg
- dose at which methemoglobinemia can occur [2]: 4-5 mg/kg bodyweight
